According to the NIST ThermoML archive (doi:10.1021/je050141m):

Settings: Liquid, Ebulliometric method (Recirculating still)

CCCCCCO [hexan-1-ol]
Settings | vapor or sublimation pressure [kPa]
391.07 K | 25
395.62 K | 30
399.65 K | 35
403.15 K | 40
406.36 K | 45
409.25 K | 50
411.92 K | 55
414.44 K | 60
416.75 K | 65
418.98 K | 70
421.05 K | 75
423.01 K | 80
424.87 K | 85
426.69 K | 90

CCCCCCOC(C)=O [hexyl ethanoate]
Settings | vapor or sublimation pressure [kPa]
397.97 K | 25
403.36 K | 30
408.02 K | 35
412.14 K | 40
416.02 K | 45
419.47 K | 50
422.59 K | 55
425.57 K | 60
428.26 K | 65
430.93 K | 70
433.38 K | 75
435.68 K | 80
437.92 K | 85
439.98 K | 90
